Source: PubChem BioAssay (NCI)
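48-hour exposure; five concentrations; linearly interpolated endpoints. TGI is the concentration that stops growth completely.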

What was measured:
Assay in all cases: NCI anticancer screen, dose series, 48 h
[1] = tested on: CAKI-1 renal
[2] = tested on: CCRF-CEM leukemia
[3] = tested on: COLO 205 colon
[4] = tested on: HS 578T breast
[5] = tested on: MALME-3M melanoma
[6] = tested on: NCI-H522 lung
[7] = tested on: NCI/ADR-RES ovarian
[8] = tested on: PC-3 prostate
[9] = tested on: SN12C renal
[10] = tested on: SNB-75 CNS
[11] = tested on: SR leukemia

Row | Structure (SMILES) | TGI [1] [µM] | TGI [2] [µM] | TGI [3] [µM] | TGI [4] [µM] | TGI [5] [µM] | TGI [6] [µM] | TGI [7] [µM] | TGI [8] [µM] | TGI [9] [µM] | TGI [10] [µM] | TGI [11] [µM]
1 | O=C1CC2(CCC(O)(c3ccc(Cl)cc3)C(C(=O)c3ccc(Cl)cc3)C2)C(=O)c2ccccc2N1 (stereo unspecified) | > 40.9 | 26.6 | > 56.5 | 7.44 | > 68.4 | > 100 | > 44.5 | > 100 | 24.8 | 3.82 | > 100
2 | O=[N+]([O-])C(=C(N1CCOCC1)N1CCOCC1)/C(Cl)=C(\Cl)[N+](=O)[O-] | 3.04 | 96.8 | 7.62 | 16.6 | 3.24 | 2.89 | 54.2 | 32.6 | 5.92 | 34.5 | > 100
3 | O=c1c2cccnc2nc2ccc3c[nH][nH]c3c12 | > 10 | > 10 | > 10 | > 10 | > 10 | > 10 | > 10 | > 10 | > 10 | > 10 | 9.14
4 | CC(C)(C)N1NC1C1NN1C(C)(C)C (stereo unspecified) | > 100 | > 100 | > 100 | > 100 | > 100 | > 100 | > 100 | > 100 | > 100 | > 100 | > 100
5 | [N-]=[N+]=Nc1ccc2c(c1)Sc1ccccc1N2CCCCCl | > 100 | > 100 | 82.3 | > 100 | > 100 | > 100 | > 100 | > 100 | > 100 | > 100 | > 100
6 | CCCNC(=S)/N=C\c1c(O)c2ccccc2oc1=O | > 100 | > 100 | > 100 | > 100 | > 100 | > 100 | > 100 | > 100 | > 100 | > 100 | > 100
7 | CC1OC(O[C@H]2CC[C@]3(C)[C@H]4CC=C5[C@@H]6[C@@H](C)[C@H](C)CC[C@]6(C(=O)O)CC[C@@]5(C(=O)O)[C@]4(C)CC[C@H]3C2(C)C)C(O)C(O)C1O (stereo partly specified) | > 75 | > 75 | > 75 | > 75 | – | > 75 | > 75 | > 75 | > 75 | > 75 | > 75
8 | c1ccc(CCN(Cc2nc3ccccc3[nH]2)Cc2nc3ccccc3[nH]2)cc1 | 12.5 | > 100 | 31.2 | 43.4 | 45.7 | 49.4 | 18.1 | 36.7 | 30.8 | 36.7 | 35.3
9 | O=C(Nc1nc(C23CC4CC(CC(C4)C2)C3)cs1)c1cc2cc(Br)cc(Br)c2oc1=O | > 100 | > 100 | > 100 | 79.7 | > 100 | > 100 | > 100 | > 100 | > 100 | 85.5 | > 100
10 | CC1(C)C(=O)N=C(N)N1C(=O)OCc1ccccc1 | > 100 | > 100 | > 100 | > 100 | > 100 | > 100 | > 100 | > 100 | > 100 | > 100 | > 100
11 | O=[N+]([O-])c1cccc2nccc(NCC(O)CO)c12 (stereo unspecified) | 35.8 | > 89.9 | 33.5 | 40.7 | 28.4 | 26 | 73.3 | 38.5 | 41 | > 63.9 | 28
12 | COc1cc2cc(C(=O)N3CC(CCl)c4ccc(NCCN)cc43)[nH]c2c(OC)c1OC (stereo unspecified) | 1 | 2.24 | 2.55 | 3.37 | 0.391 | 0.542 | 1.54 | 2.07 | 2.42 | 0.571 | 38.8
13 | COC(=O)C1(O)c2ccccc2N=C2C(=O)c3ccccc3N21 (stereo unspecified) | > 100 | > 100 | > 100 | > 100 | > 100 | > 100 | > 100 | > 100 | > 100 | > 100 | > 100
14 | Cc1ccccc1N(C)S(=O)(=O)c1ccccc1[N+](=O)[O-] | > 100 | > 100 | > 100 | > 100 | > 100 | > 100 | > 100 | > 100 | > 100 | > 100 | > 100
15 | CSc1cc(Cl)c(C)cc1S(=O)(=O)NC(=O)NNc1ccc(F)c(Cl)c1 | > 100 | > 100 | > 100 | > 100 | > 100 | > 100 | > 100 | > 100 | > 100 | > 100 | > 100
16 | O=S1(=O)CCN(Cc2ccccc2)/C1=N\S(=O)(=O)c1ccc(Cl)cc1 | 33.2 | 85.5 | 34.3 | 73.8 | – | 29.9 | 35.8 | 36.7 | 33.3 | 50.9 | 59.9
17 | C=C1C(=O)C23CC1C[C@H](OC(C)=O)C2C1(C)C(OC(C)=O)C[C@H](O)C(C)(C)[C@H]1C(O)[C@@H]3OC(C)=O (stereo partly specified) | 30.7 | 8.25 | 14.5 | 41.9 | 19.9 | 3.34 | > 100 | 26.5 | 20.7 | 36.3 | 27.4
18 | CCCCCCCCCCCCCCCCP(=O)(O)OP(=O)(O)OCC1OC(n2cnc3c(N)ncnc32)C(O)C1O (stereo unspecified) | 64.4 | 97.4 | > 100 | 89.1 | 44.8 | 41.7 | 98.6 | 52.9 | 59.5 | 45.3 | > 100
